Data as given in paper PMC6562672, “Dose-Dependent Sorafenib-Induced Immunosuppression Is Associated with Aberrant NFAT Activation and Expression of PD-1 in T Cells” (Cancers, 2019).

Tested on: HCC
Assay: Tumor histology: H&E necrosis and CD3 immunohistochemistry
Format: in vivo, woodchuck (Marmota monax)
Description: Tumor specimens were diagnosed as HCC based on the established classification of neoplastic liver lesions. After standard processing and embedding in paraffin, 4 μm sections were prepared, deparaffinized, stained with hematoxylin-eosin (H&E), studied with a Zeiss Axio Imager A1 microscope (Carl Zeiss, Oberkochen, Germany) by a pathologist blinded to the treatment arm. Morphometric study of areas of necrosis was compared to the size of the tumor sections by counting view fields at medium objective magnification. IHC staining with mouse anti-rat CD3 (BD Biosciences, San Jose, CA, USA) was performed on […] paraffin sections of posttreatment tumor tissues obtained after tumor reached over 2 cm. Images of at least 7 randomly selected fields (unit area of each field, 0.34 mm^2) were captured by observers blinded to sample identity. Identical exposure times and image settings were used within each experiment. Images were analyzed with ImageJ software (http://rsb.info.nih.gov/ij, Bethesda, MD, USA).

## CNC(=O)c1cc(Oc2ccc(NC(=O)Nc3ccc(Cl)c(C(F)(F)F)c3)cc2)ccn1 [sorafenib, Sorafenib]
High dose vs placebo, tumor over 2 cm, p = 0.02
  necrotic change of HCC (H&E): significantly large necrotic change
High vs low dose, p = 0.07
  necrotic change of HCC (H&E): no statistical difference
Low dose compared to high dose
  CD3+ cell infiltration in tumors: More CD3+ cells
Low dose vs placebo
  CD3+ cell infiltration in tumors: no statistical difference
